Test results from article PMC5218480 (PLoS ONE, 2017).

System: MV-4-11 cells
Assay: Gene expression microarray analysis (Affymetrix PrimeView) and GSEA
Assay type: cell-based, human
Set-up: RFU PODN (11730768_x_at) / Fold change /veh PODN (11730768_x_at) / RFU LINC00158 (11744669_a_at) / Fold change /veh LINC00158 (11744669_a_at) / RFU DUSP10 (11751237_a_at) / Fold change /veh DUSP10 (11751237_a_at) / RFU ID3 (11757404_x_at) / Fold change /veh ID3 (11757404_x_at) / RFU PLEKHG5 (11737974_s_at) / Fold change /veh PLEKHG5 (11737974_s_at) / RFU LRRC4B (11730491_at) / Fold change /veh LRRC4B (11730491_at) / RFU GIMAP4 (11747438_a_at) / Fold change /veh GIMAP4 (11747438_a_at) / RFU KRT8 (11758183_x_at) / Fold change /veh KRT8 (11758183_x_at) / RFU CNN1 (11734310_a_at) / Fold change /veh CNN1 (11734310_a_at) / RFU VPS37D (11726825_at) / Fold change /veh VPS37D (11726825_at) / RFU C10orf10 (11716522_x_at) / Fold change /veh C10orf10 (11716522_x_at) / RFU KIR2DL2 /// KIR2DL4 /// KIR2DL5A /// KIR2DL5B /// KIR2DS1 /// KIR2DS2 /// KIR2DS3 /// KIR2DS4 /// KIR3DL3 /// KIR3DL3 /// KIR3DS1 (11738374_at) / Fold change /veh KIR2DL2 /// KIR2DL4 /// KIR2DL5A /// KIR2DL5B /// KIR2DS1 /// KIR2DS2 /// KIR2DS3 /// KIR2DS4 /// KIR3DL3 /// KIR3DL3 /// KIR3DS1 (11738374_at) / RFU C1QL1 (11718748_at) / Fold change /veh C1QL1 (11718748_at) / RFU TMPRSS4 (11747572_a_at) / Fold change /veh TMPRSS4 (11747572_a_at) / RFU HAMP (11756126_x_at) / Fold change /veh HAMP (11756126_x_at) / RFU RNFT2 (11725882_a_at) / Fold change /veh RNFT2 (11725882_a_at) / RFU NR4A2 (11747474_a_at) / Fold change /veh NR4A2 (11747474_a_at) / RFU ABCC12 (11746883_a_at) / Fold change /veh ABCC12 (11746883_a_at) / RFU TMEM136 (11760407_x_at) / Fold change /veh TMEM136 (11760407_x_at) / RFU CLDN22 /// WWC2 (11732394_at) / Fold change /veh CLDN22 /// WWC2 (11732394_at) / RFU HLA-DPB1 (11760878_x_at) / Fold change /veh HLA-DPB1 (11760878_x_at) / RFU SPINT1 (11716480_a_at) / Fold change /veh SPINT1 (11716480_a_at) / RFU GAP43 (11754022_s_at) / Fold change /veh GAP43 (11754022_s_at) / RFU A4GNT (11735810_at) / Fold change /veh A4GNT (11735810_at) / RFU PRB3 (11715151_x_at) / Fold change /veh PRB3 (11715151_x_at) / RFU TUBB4B (11761932_at) / Fold change /veh TUBB4B (11761932_at) / RFU CAPN14 (11732068_a_at) / Fold change /veh CAPN14 (11732068_a_at) / RFU TMCC2 (11721928_a_at) / Fold change /veh TMCC2 (11721928_a_at) / RFU IRGQ (11745062_a_at) / Fold change /veh IRGQ (11745062_a_at) / RFU FAM174B (11720279_a_at) / Fold change /veh FAM174B (11720279_a_at) / RFU TMPRSS4 (11748680_a_at) / Fold change /veh TMPRSS4 (11748680_a_at) / RFU FAM212B (11763350_a_at) / Fold change /veh FAM212B (11763350_a_at) / RFU PLEKHG5 (11743358_a_at) / Fold change /veh PLEKHG5 (11743358_a_at) / RFU ZSCAN30 (11745921_a_at) / Fold change /veh ZSCAN30 (11745921_a_at) / RFU CMKLR1 (11741424_a_at) / Fold change /veh CMKLR1 (11741424_a_at) / RFU LOC101060620 /// MAPK8IP1 (11723275_at) / Fold change /veh LOC101060620 /// MAPK8IP1 (11723275_at) / RFU SPTSSB (11747773_x_at) / Fold change /veh SPTSSB (11747773_x_at) / RFU PRSS12 (11739890_at) / Fold change /veh PRSS12 (11739890_at) / RFU BIN1 (11741810_x_at) / Fold change /veh BIN1 (11741810_x_at) / RFU WNT11 (11732464_a_at) / Fold change /veh WNT11 (11732464_a_at) / RFU C10orf10 (11716521_a_at) / Fold change /veh C10orf10 (11716521_a_at) / RFU C5orf56 (11738089_at) / Fold change /veh C5orf56 (11738089_at) / RFU CYB561 (11721691_x_at) / Fold change /veh CYB561 (11721691_x_at) / RFU ANKRD19P (11752326_a_at) / Fold change /veh ANKRD19P (11752326_a_at) / RFU OR2T12 /// OR2T33 /// OR2T8 (11738714_s_at) / Fold change /veh OR2T12 /// OR2T33 /// OR2T8 (11738714_s_at) / RFU VCAN (11748164_a_at) / Fold change /veh VCAN (11748164_a_at) / RFU JSRP1 (11732532_at) / Fold change /veh JSRP1 (11732532_at) / RFU KRTAP10-11 (11738290_x_at) / Fold change /veh KRTAP10-11 (11738290_x_at) / RFU MYO3A (11730013_a_at) / Fold change /veh MYO3A (11730013_a_at) / RFU EBF3 (11725865_a_at) / Fold change /veh EBF3 (11725865_a_at) / RFU CAMK2N1 (11719241_x_at) / Fold change /veh CAMK2N1 (11719241_x_at) / RFU C5orf56 (11738088_a_at) / Fold change /veh C5orf56 (11738088_a_at) / RFU OLFML3 (11715873_a_at) / Fold change /veh OLFML3 (11715873_a_at) / RFU LOC100653217 /// NTM (11731650_a_at) / Fold change /veh LOC100653217 /// NTM (11731650_a_at) / RFU MAPK11 (11762145_a_at) / Fold change /veh MAPK11 (11762145_a_at) / RFU FIZ1 (11724087_x_at) / Fold change /veh FIZ1 (11724087_x_at) / RFU OASL (11726364_x_at) / Fold change /veh OASL (11726364_x_at) / RFU SOX15 (11748057_x_at) / Fold change /veh SOX15 (11748057_x_at) / RFU CD79A (11719716_a_at) / Fold change /veh CD79A (11719716_a_at) / RFU HIST1H1D (11736915_at) / Fold change /veh HIST1H1D (11736915_at) / RFU CASKIN2 (11723855_a_at) / Fold change /veh CASKIN2 (11723855_a_at) / RFU LOC730098 (11760151_x_at) / Fold change /veh LOC730098 (11760151_x_at) / RFU OR4N2 (11742367_at) / Fold change /veh OR4N2 (11742367_at) / RFU PRRT2 (11749266_a_at) / Fold change /veh PRRT2 (11749266_a_at) / RFU SNX32 (11753110_a_at) / Fold change /veh SNX32 (11753110_a_at) / RFU CDHR5 (11726645_a_at) / Fold change /veh CDHR5 (11726645_a_at) / RFU RCAN1 (11760418_a_at) / Fold change /veh RCAN1 (11760418_a_at) / RFU FAM167A (11723789_a_at) / Fold change /veh FAM167A (11723789_a_at) / RFU FAM26E (11764081_at) / Fold change /veh FAM26E (11764081_at) / RFU ISYNA1 (11749810_s_at) / Fold change /veh ISYNA1 (11749810_s_at) / RFU ACY1 (11761880_at) / Fold change /veh ACY1 (11761880_at) / RFU 11764098_at / Fold change /veh 11764098_at / RFU SAMD14 (11745864_x_at) / Fold change /veh SAMD14 (11745864_x_at) / RFU NPB (11741838_a_at) / Fold change /veh NPB (11741838_a_at) / RFU TMPRSS6 (11731388_a_at) / Fold change /veh TMPRSS6 (11731388_a_at) / RFU KRTAP10-2 (11738614_at) / Fold change /veh KRTAP10-2 (11738614_at) / RFU ARHGAP8 /// PRR5-ARHGAP8 (11727945_x_at) / Fold change /veh ARHGAP8 /// PRR5-ARHGAP8 (11727945_x_at) / RFU KRTAP5-7 /// NADSYN1 (11734609_at) / Fold change /veh KRTAP5-7 /// NADSYN1 (11734609_at) / RFU RASL12 (11751679_a_at) / Fold change /veh RASL12 (11751679_a_at) / RFU CDKN2B (11736163_a_at) / Fold change /veh CDKN2B (11736163_a_at) / RFU PRF1 (11729649_at) / Fold change /veh PRF1 (11729649_at) / RFU, ZNF638 /// ZNF638-IT1 / Fold change vs veh, ZNF638 /// ZNF638-IT1 / RFU, PANK3 / Fold change vs veh, PANK3 / RFU, SH3YL1 / Fold change vs veh, SH3YL1 / RFU, ZEB2 / Fold change vs veh, ZEB2 / RFU, NRIP1 / Fold change vs veh, NRIP1 / RFU, PTTG1IP / Fold change vs veh, PTTG1IP / RFU, CAPN2 / Fold change vs veh, CAPN2 / RFU, MED14 / Fold change vs veh, MED14 / RFU, SNORA58 / Fold change vs veh, SNORA58 / RFU, C1orf63 / Fold change vs veh, C1orf63 / RFU, LRRFIP1 / Fold change vs veh, LRRFIP1 / RFU, NDUFAF7 / Fold change vs veh, NDUFAF7 / RFU, SLC12A2 / Fold change vs veh, SLC12A2 / RFU, IBTK / Fold change vs veh, IBTK / RFU, ESF1 / Fold change vs veh, ESF1 / Fold change vs veh, TMEM50B / RFU, TAOK1 / Fold change vs veh, TAOK1 / RFU, ACBD3 / Fold change vs veh, ACBD3 / RFU, TMA16 / Fold change vs veh, TMA16 / RFU, RWDD3 / Fold change vs veh, RWDD3 / RFU, BCAT1 / Fold change vs veh, BCAT1 / RFU, EDEM3 / Fold change vs veh, EDEM3 / RFU, TMEM33 / Fold change vs veh, TMEM33 / RFU, WDR75 / Fold change vs veh, WDR75 / RFU, AHCTF1 / Fold change vs veh, AHCTF1 / RFU, TFRC / Fold change vs veh, TFRC / RFU, ZDHHC17 / Fold change vs veh, ZDHHC17 / RFU, NOM1 / Fold change vs veh, NOM1 / RFU, ARL8B / Fold change vs veh, ARL8B / RFU, ZBTB11 / Fold change vs veh, ZBTB11 / RFU, TAMM41 / Fold change vs veh, TAMM41 / RFU, KIAA1704 /// LOC100996395 / Fold change vs veh, KIAA1704 /// LOC100996395 / RFU, ING1 / Fold change vs veh, ING1 / RFU, TRMT61B / Fold change vs veh, TRMT61B / RFU, FUBP3 / Fold change vs veh, FUBP3 / RFU, TP53 / Fold change vs veh, TP53 / RFU, TNKS2 / Fold change vs veh, TNKS2 / RFU, ZFP14 / Fold change vs veh, ZFP14 / RFU, ACTR2 / Fold change vs veh, ACTR2 / RFU, PPP3R1 / Fold change vs veh, PPP3R1 / RFU, PIK3R1 / Fold change vs veh, PIK3R1 / RFU, HNRNPA1 / Fold change vs veh, HNRNPA1 / RFU, RNF170 / Fold change vs veh, RNF170 / RFU, ZNF28 / Fold change vs veh, ZNF28 / RFU, RNGTT / Fold change vs veh, RNGTT / RFU, OGT / Fold change vs veh, OGT / RFU, BRD1 / Fold change vs veh, BRD1 / RFU, MARS / Fold change vs veh, MARS / RFU, ZNF655 / Fold change vs veh, ZNF655 / RFU, FAHD1 / Fold change vs veh, FAHD1 / RFU, BDP1 / Fold change vs veh, BDP1 / RFU, LRRCC1 / Fold change vs veh, LRRCC1 / RFU, ARID1A / Fold change vs veh, ARID1A / RFU, ZNF146 / Fold change vs veh, ZNF146 / RFU, ZNF330 / Fold change vs veh, ZNF330 / RFU, GPN3 / Fold change vs veh, GPN3 / RFU, C9orf123 / Fold change vs veh, C9orf123 / RFU, N4BP2L2 / Fold change vs veh, N4BP2L2 / RFU, ARFIP1 / Fold change vs veh, ARFIP1 / RFU, FAM179B / Fold change vs veh, FAM179B / RFU, BCL10 / Fold change vs veh, BCL10 / RFU, UHRF1BP1L / Fold change vs veh, UHRF1BP1L / RFU, BET1 / Fold change vs veh, BET1 / RFU, CNOT2 / Fold change vs veh, CNOT2 / RFU, ZNF268 / Fold change vs veh, ZNF268 / Fold change vs veh, ZNF507 / RFU, DGCR2 / Fold change vs veh, DGCR2 / RFU, WDSUB1 / Fold change vs veh, WDSUB1 / Fold change vs veh, HSP90B1 /// MIR3652 / RFU, ADSS / Fold change vs veh, ADSS / RFU, GK / Fold change vs veh, GK / RFU, ZNF148 / Fold change vs veh, ZNF148 / RFU, TAF9 / Fold change vs veh, TAF9 / RFU, SLC1A5 / Fold change vs veh, SLC1A5 / RFU, SLMO2 / Fold change vs veh, SLMO2 / RFU, ABCC4 / Fold change vs veh, ABCC4 / RFU, LOC101060439 /// RAP1B / Fold change vs veh, LOC101060439 /// RAP1B / RFU, RFX7 / Fold change vs veh, RFX7 / RFU, GTPBP10 / Fold change vs veh, GTPBP10 / RFU, CNEP1R1 / Fold change vs veh, CNEP1R1 / RFU, BIVM-ERCC5 /// ERCC5 / Fold change vs veh, BIVM-ERCC5 /// ERCC5 / RFU, ILF3 / Fold change vs veh, ILF3 / RFU 11762660_at / Fold change /veh 11762660_at / RFU VCAN (11757783_s_at) / Fold change /veh VCAN (11757783_s_at) / RFU DDX43 (11728927_at) / Fold change /veh DDX43 (11728927_at) / RFU KRT8 (11758188_x_at) / Fold change /veh KRT8 (11758188_x_at) / RFU NKD1 (11759106_at) / Fold change /veh NKD1 (11759106_at) / RFU SRD5A1 (11742802_a_at) / Fold change /veh SRD5A1 (11742802_a_at) / RFU TPSAB1 /// TPSB2 (11721975_s_at) / Fold change /veh TPSAB1 /// TPSB2 (11721975_s_at) / RFU GSTM3 (11746129_a_at) / Fold change /veh GSTM3 (11746129_a_at) / RFU IL23R (11737362_x_at) / Fold change /veh IL23R (11737362_x_at) / RFU TMEM51 (11727254_a_at) / Fold change /veh TMEM51 (11727254_a_at) / RFU PIWIL2 (11732686_x_at) / Fold change /veh PIWIL2 (11732686_x_at) / RFU ORM1 (11744905_x_at) / Fold change /veh ORM1 (11744905_x_at) / RFU CCDC152 (11743942_at) / Fold change /veh CCDC152 (11743942_at) / RFU ECM1 (11717891_a_at) / Fold change /veh ECM1 (11717891_a_at) / RFU IL23R (11748794_a_at) / Fold change /veh IL23R (11748794_a_at) / RFU TNFAIP8L3 (11732012_x_at) / Fold change /veh TNFAIP8L3 (11732012_x_at) / RFU MBOAT4 (11741988_at) / Fold change /veh MBOAT4 (11741988_at) / RFU 11764193_at / Fold change /veh 11764193_at / RFU TMEM53 (11763286_at) / Fold change /veh TMEM53 (11763286_at) / RFU MAGEB2 (11727129_at) / Fold change /veh MAGEB2 (11727129_at) / RFU TMEM200A (11744735_a_at) / Fold change /veh TMEM200A (11744735_a_at) / RFU CCDC152 (11751479_a_at) / Fold change /veh CCDC152 (11751479_a_at) / RFU FAM211A (11726209_a_at) / Fold change /veh FAM211A (11726209_a_at) / RFU RGS16 (11746705_a_at) / Fold change /veh RGS16 (11746705_a_at) / RFU VCAN (11755009_s_at) / Fold change /veh VCAN (11755009_s_at) / RFU RHOB (11743442_s_at) / Fold change /veh RHOB (11743442_s_at) / RFU RGS16 (11720943_a_at) / Fold change /veh RGS16 (11720943_a_at) / RFU RGS16 (11720944_at) / Fold change /veh RGS16 (11720944_at) / RFU, VPS4B / Fold change vs veh, VPS4B / RFU, CREB1 / Fold change vs veh, CREB1 / RFU, DNAJC13 / Fold change vs veh, DNAJC13 / RFU, GNAQ / Fold change vs veh, GNAQ / RFU, CDK5R1 / Fold change vs veh, CDK5R1 / RFU, ZRANB3 / Fold change vs veh, ZRANB3 / RFU, CUL4A / Fold change vs veh, CUL4A / RFU, CCNY / Fold change vs veh, CCNY / RFU, UFL1 / Fold change vs veh, UFL1 / RFU, COG3 / Fold change vs veh, COG3 / RFU, DIAPH2 / Fold change vs veh, DIAPH2 / RFU, SKA2 / Fold change vs veh, SKA2 / RFU, AFF3 / Fold change vs veh, AFF3 / RFU, LMF1 / Fold change vs veh, LMF1 / RFU, IPO11 / Fold change vs veh, IPO11 / RFU, DFFB / Fold change vs veh, DFFB / RFU, FOXP1 / Fold change vs veh, FOXP1 / RFU, CARD8 / Fold change vs veh, CARD8 / RFU, STRN3 / Fold change vs veh, STRN3 / RFU, ADK / Fold change vs veh, ADK / RFU, RASSF2 / Fold change vs veh, RASSF2 / RFU, WIPF1 / Fold change vs veh, WIPF1 / RFU, LARP1B / Fold change vs veh, LARP1B / RFU, RASA1 / Fold change vs veh, RASA1 / RFU, RB1 / Fold change vs veh, RB1 / RFU, PPFIA1 / Fold change vs veh, PPFIA1 / RFU, MAT2A / Fold change vs veh, MAT2A / RFU, CCT5 / Fold change vs veh, CCT5 / RFU, WDR92 / Fold change vs veh, WDR92 / RFU, CUX1 / Fold change vs veh, CUX1 / RFU, TTC7A / Fold change vs veh, TTC7A / RFU, TMEM135 / Fold change vs veh, TMEM135 / RFU, DEPTOR / Fold change vs veh, DEPTOR / RFU, CPM / Fold change vs veh, CPM / RFU, DNAJB6 / Fold change vs veh, DNAJB6 / RFU, CACNA2D3 / Fold change vs veh, CACNA2D3 / RFU, DTX4 / Fold change vs veh, DTX4 / RFU, TFCP2 / Fold change vs veh, TFCP2 / RFU, GMCL1 /// GMCL1P1 / Fold change vs veh, GMCL1 /// GMCL1P1 / RFU, AEBP2 / Fold change vs veh, AEBP2 / RFU, SNHG1 /// SNORD22 /// SNORD25 /// SNORD26 /// SNORD27 /// SNORD28 /// SNORD29 /// SNORD31 / Fold change vs veh, SNHG1 /// SNORD22 /// SNORD25 /// SNORD26 /// SNORD27 /// SNORD28 /// SNORD29 /// SNORD31 / Fold change (Aza/veh), C12orf56 (ProbeSet 11735607_a_at) / Fold change (ACY-1035/veh), C12orf56 (ProbeSet 11735607_a_at) / Fold change (Aza/veh), FGFR1OP (ProbeSet 11751329_s_at) / Fold change (ACY-1035/veh), FGFR1OP (ProbeSet 11751329_s_at) / Fold change (Aza/veh), VPS36 (ProbeSet 11739960_a_at) / Fold change (ACY-1035/veh), VPS36 (ProbeSet 11739960_a_at) / RFU SYPL1 (11715823_x_at) / Fold change /veh SYPL1 (11715823_x_at) / RFU IGFBP7 (11715501_s_at) / Fold change /veh IGFBP7 (11715501_s_at) / RFU REEP3 (11722064_at) / Fold change /veh REEP3 (11722064_at) / RFU IGLL1 (11728026_x_at) / Fold change /veh IGLL1 (11728026_x_at): dose or concentration left out as unconfirmed
Details: ProbeSet 11732433_s_at; LIST B

Structure (SMILES): Nc1ccc(-c2cccs2)cc1NC(=O)c1ccc2c(c1)cc(C1CC1)n2CCN1CCOCC1 [ACY-1035]
- Fold change vs veh, GK: 1.08
